Source: patent publication US4100276A, “Fusidic acid derivatives” (priority 1975, dated 1978)
In brackets after ≈: the same amount, converted by molar mass. Entries after “also recorded” stand apart in the source; their conditions may differ. Counter-ions that a name gives are not always drawn. Like-named read-outs stand apart in the source and are kept apart here.

Assays:
Staphylococcus aureus [1] = assay: In vitro effect of combination with dihydro-fusidic acid, viable counts (Example 46); format: cell-based; settings: tubes a, b 10 μg/ml, tube c 5 + 5 μg/ml
Method: In vitro-effect of the combination of dihydro-fusidic acid and 3α,11α-dihydroxy-16β-phenylthio-fusida-13(17),24-dien-21- oic acid
To three tubes containing NIH broth was added:
a. The sodium salt of dihydro-fusidic acid (10 μg/ml).
b. The sodium salt of 3α,11α-dihydroxy-16-phenylthiofusida-13(17),24-dien-21-oic acid (10 μg/ml).
c. A mixture of the sodium salts of dihydro-fusidic acid (5 μg/ml) and 3α,11α-dihydroxy-16-phenylthiofusida-13(17),24-dien-21-oic acid (5 μg/ml).
The tubes were inoculated with Staphylococcus aureus to give 5.2 × 10^5 organisms per ml, incubated at 37° C for 96 hours, and the viable counts were determined.
(§1) A fourth tube was treated similarly without addition of any of the antibiotics and used as a control: […]

[2] = tested on: Bacteroides fragilis, Leo JA2; assay: In vitro activity, concentration required for 50% inhibition (Table A); format: cell-based; settings: Bacteroides fragilis, LEOJA2, read-out: Concentration required for 50% inhibition (IC50)
Streptococcus pyogenes = assay: In vitro bactericidal effect, viable counts (Example 44); format: cell-based; settings: 10 μg/ml, NIH broth, 37° C; for Viable count after 0 hr: 0 hr (inoculum)
Method: In vitro bactericidal effect of 3α,11α-dihydroxy-16β-phenylthiofusida-13(17),24-dien-21-oic acid compared to that of fusidic acid […]
To two tubes containing NIH broth was added: a. The sodium salt of 3α,11α-dihydroxy-16β-phenylthiofusida-13(17),24-dien-21-oic acid (10 μg/ml) […]
b. The sodium salt of fusidic acid (10 μg/ml)
The tubes were inoculated with Streptococcus pyogenes to give 9.2×10^4 organisms per ml, incubated at 37° C, and the viable counts were determined at intervals.
A third tube was treated similarly without addition of any of the antibiotics and used as a control: […]

[3] = tested on: Streptococcus sp. Leo EG2; assay: In vitro activity, concentration required for 50% inhibition (Table A); format: cell-based; settings: Streptococcus, read-out: Concentration required for 50% inhibition (IC50)
Staph. aureus Leo CJ145 = assay: as above; format: cell-based; settings: Staphylococcus aureus, LEOCJ145, read-out: Concentration required for 50% inhibition (IC50)
[4] = tested on: Staphylococcus aureus Leo CC178B; assay: as above; format: cell-based; settings: Staphylococcus aureus, LEOCC178B, read-out: Concentration required for 50% inhibition (IC50)
[5] = tested on: Streptococcus pyogenes Leo EC; assay: as above; format: cell-based; settings: Streptococcus pyogenes, read-out: Concentration required for 50% inhibition (IC50)
Corynebact. acnes Leo FN = assay: as above; format: cell-based, Corynebacterium acnes; settings: Cutibacterium acnes, read-out: Concentration required for 50% inhibition (IC50)
[6] = tested on: Staph. aureus, Leo CC178H2 (fusidic acid resistant strain); assay: as above; format: cell-based; settings: Staphylococcus aureus, read-out: Concentration required for 50% inhibition (IC50)
[7] = tested on: fusidic acid sensitive strain of Staph. aureus (Leo CC 178B); assay: In vitro activity before and after a number of transfers (Example 48, Table C); format: cell-based; settings: for IC50: Staphylococcus aureus, Leo CC 178B (fusidic acid sensitive), overnight incubation
Method: (§2) In vitro activity of 3α,11α-dihydroxy-16β-ethylthiofusida-13(17),24-dien-21-oic acid against Staph. aureus before and after a number of transfers.
(§3) Serial dilutions of the compound above were made in liquid NIH-medium and then heavily inoculated with either a fusidic acid sensitive strain of Staph. aureus (Leo CC 178B) or with a fusidic acid resistant variant of the same strain (Leo CC 178A).
(§4) After every 72 to 96 hours transfers were made from the tubes containing the largest amount of the test compound showing full growth.

[8] = tested on: fusidic acid resistant variant of Staph. aureus (Leo CC 178A); assay: as above; format: cell-based; settings: for IC50: Staphylococcus aureus
Method: as §2, §3, §4

bacteria = assay: In vitro investigations of antibacterial activity (general statements); format: cell-based
[9] = tested on: Staph. aureus (Leo CC 178B), fusidic acid sensitive strain; assay: microbe, parasite or virus in culture; format: cell-based; settings: Staphylococcus aureus, isolates from "Comp. of Ex 8 cult." (48 hours pretreatment)
[10] = Absorption from the gastro-intestinal tract; settings: in vivo
[11] = tested on: Staph. aureus (Leo CC 178B), fusidic acid sensitive strain; assay: microbe, parasite or virus in culture; format: cell-based; settings: for IC50: Staphylococcus aureus
Method: Prevention of development of resistance against fusidic acid as a result of treating Staph. aureus with the sodium salt of 3α,11α-dihydroxy-16β-isopropylthiofusida-13(17),24-dien-21-oic acid
After a 48 hours pretreatment of a fusidic acid sensitive strain of Staph. aureus (Leo CC 178B) with subinhibitory concentrations of fusidic acid or the compound of Example 9. The sensitivities of the pretreated cultures and of the original strain against the two compounds were determined. The determinations were made by serial dilutions in NIH-broth, inoculum size 2.10^5 organisms/ml, and read as IC50 after 18 and 48 hours.

Staphylococcus aureus [12] = assay: In vitro effect of combination with fusidic acid, viable counts (Example 45); format: cell-based; settings: 24 hours; for Resistance of surviving organisms to the compound / development of resistance: fusidic acid 1 μg/ml, isopropylthio compound 3 μg/ml, mixture 1 + 3 μg/ml; for Viable count: 37° C, fusidic acid 1 μg/ml (tube a), isopropylthio compound 3 μg/ml (tube b), mixture 1 + 3 μg/ml (tube c), inoculum 1.4×10^4
Method: In vitro-effect of the combination of fusidic acid and 3α,11α-dihydroxy-16β-isopropylthio-fusida-13(17),24-dien- 21-oic acid
To 3 tubes containing NIH broth was added:
a. The sodium salt of fusidic acid (1 μg/ml).
b. The sodium salt of 3α,11α-dihydroxy-16-isopropylthiofusida-13(17),24-dien-21-oic acid (3 μg/ml).
c. A mixture of the sodium salts of fusidic acid (1 μg/ml) and 3α,11α-dihydroxy-16-isopropylthiofusida-13(17),24-dien-21-oic acid (3 μg/ml).
The tubes were inoculated with Staphylococcus aureus to give 1.4×10^4 organisms per ml, incubated at 37° C for 24 hours, and the viable counts were determined.
as §1

[13] = read-out: IC50 after 1st transfer
[14] = read-out: IC50 after 2nd transfer
[15] = read-out: IC50 after 3rd transfer
[16] = read-out: IC50 after 4th transfer
[17] = read-out: IC50 after 5th transfer
[18] = read-out: IC50 after 6th transfer
[19] = 18 h, isolates from control culture, inoculum 2.10^5 organisms/ml, NIH-broth, read-out: IC50, 18 hours
[20] = 48 h, isolates from control culture, inoculum 2.10^5 organisms/ml, NIH-broth, read-out: IC50, 48 hours
[21] = isolates from fusidic acid pretreated culture (48 hours pretreatment), read-out: IC50, 18 hours
[22] = isolates from fusidic acid pretreated culture (48 hours pretreatment), read-out: IC50, 48 hours

Row | SMILES | IC50 [2] [µg/mL] | Viable count after 0 hr (Streptococcus pyogenes) | Viable count after 1.5 hr (Streptococcus pyogenes; inoculum 9.2×10^4) | Viable count after 4 hr (Streptococcus pyogenes; inoculum 9.2×10^4) | IC50 [3] [µg/mL] | IC50 (Staph. aureus Leo CJ145) [µg/mL] | IC50 [4] [µg/mL] | IC50 [5] [µg/mL] | IC50 (Corynebact. acnes Leo FN) [µg/mL] | IC50 [6] [µg/mL] | IC50 ([9]; read-out: IC50, 18 hours) [µg/mL] | IC50 ([9]; read-out: IC50, 48 hours) [µg/mL] | IC50 [11, 19] [µg/mL] | IC50 [11, 20] [µg/mL] | IC50 [11, 21] [µg/mL] | IC50 [11, 22] [µg/mL] | Resistance of surviving organisms to the compound / development of resistance (Staphylococcus aureus [12]) | Viable count (Staphylococcus aureus [12]) | further results
1 | CC(C)=CCCC(C(=O)O)C1=C2C[C@@H](O)[C@H]3[C@@]4(C)CC[C@@H](O)[C@@H](C)[C@@H]4CC[C@]3(C)[C@@]2(C)C[C@@H]1Sc1ccccc1 (stereo partly drawn) [Example 1, 3α,11α-Dihydroxy-16β -phenylthiofusida-13(17), 24-dien-21-oic acid sodium salt] | 20 | 9.2 × 10^4 organisms per ml | 1.4 × 10^4 organisms per ml | 5.7 × 10^2 organisms per ml | 1.6 | 3.2 | 1.6 | 0.5 | 0.5 | 1.6 | – | – | – | – | – | – | – | – | Viable counts after 6 1/2 hours (Staphylococcus aureus [1]; 37° C, inoculum 5.2 × 10^5): 1.1 × 10^4 organisms per ml; Viable counts after 2 hours (Staphylococcus aureus [1]; 37° C, inoculum 5.2 × 10^5): 5.2 × 10^4 organisms per ml; Viable counts after 24 hours (Staphylococcus aureus [1]; 37° C, inoculum 5.2 × 10^5): 3.1 × 10^6 organisms per ml; Resistance of surviving organisms to the compound / development of resistance (Staphylococcus aureus [1]; 96 hours): resistant to 3α,11α-dihydroxy-16β-phenylthio-fusida-13(17),24-dien-21- oic acid
2 | CCS[C@H]1C[C@@]2(C)C(=C1C(CCC=C(C)C)C(=O)O)C[C@@H](O)[C@H]1[C@@]3(C)CC[C@@H](O)[C@@H](C)[C@@H]3CC[C@@]12C (stereo partly drawn) [Example 11, 3α,11α-dihydroxy-16β-ethylthiofusida-13(17),24-dien-21-oic acid sodium salt] | 2 | – | – | – | 1.6 | 3.2 | 2.7 | 1.6 | 2 | 3.2 | – | – | – | – | – | – | – | – | IC50 [7, 13]: 2 µg/mL; IC50 [7, 14]: 7.4 µg/mL; IC50 [7, 15]: 7.4 µg/mL; IC50 [7, 16]: 13.5 µg/mL; IC50 [7, 17]: 10 µg/mL; IC50 [7, 18]: 32 µg/mL; IC50 ([7]; read-out: IC50 before transfer): 2.7 µg/mL; Decrease of sensitivity after the 6th transfer ([7]; fusidic acid sensitive strain): 12 fold; IC50 [8, 13]: 2.3 µg/mL; IC50 [8, 14]: 3.8 µg/mL; IC50 [8, 15]: 4.3 µg/mL; IC50 [8, 16]: 4.2 µg/mL; IC50 [8, 17]: 4 µg/mL; IC50 [8, 18]: 4 µg/mL; IC50 ([8]; read-out: IC50 before transfer): 2.7 µg/mL; Change in sensitivity after transfers ([8]; fusidic acid resistant strain): hardly shows any change in sensitivity
3 | CC(=O)O[C@H]1C[C@@]2(C)[C@@H](C[C@@H](O)[C@H]3[C@@]4(C)CC[C@@H](O)[C@@H](C)[C@@H]4CC[C@@]32C)/C1=C(\CCC=C(C)C)C(=O)O [Fusidic acid] | 1.6 (≈ 3.1 µM) | – | – | – | 1.6 (≈ 3.1 µM) | 16 (≈ 31 µM) | 0.025 (≈ 0.0484 µM) | 0.63 (≈ 1.22 µM) | 0.2 (≈ 0.387 µM) | 32 (≈ 61.9 µM) | 0.016 (≈ 0.031 µM) | 0.02 (≈ 0.0387 µM) | 0.016 (≈ 0.031 µM) | 1 (≈ 1.94 µM) | 7.9 (≈ 15.3 µM) | 50 (≈ 96.8 µM) | resistant to fusidic acid | – | Antibacterial effect, bactericidal/bacteriostatic (in words) (bacteria): solely bacteriostatic; Absorption from the gastro-intestinal tract (in words) [10]: absorbed efficiently from the gastro-intestinal tract
4 | CC(=O)O[C@H]1C[C@@]2(C)[C@@H](C[C@@H](O)[C@H]3[C@@]4(C)CC[C@@H](O)[C@@H](C)[C@@H]4CC[C@@]32C)/C1=C(\CCC=C(C)C)C(=O)O [sodium salt of fusidic acid] | – | 9.2 × 10^4 organisms per ml | 1.2 × 10^5 organisms per ml | 1.5 × 10^5 organisms per ml | – | – | – | – | – | – | – | – | – | – | – | – | – | 1.8 × 10^8 organisms per ml | Viable count after 7 hr (Streptococcus pyogenes; inoculum 9.2×10^4): 1.3 × 10^5 organisms per ml
5 | CC(C)=CCCC(C(=O)O)C1=C2C[C@@H](O)[C@H]3[C@@]4(C)CC[C@@H](O)[C@@H](C)[C@@H]4CC[C@]3(C)[C@@]2(C)C[C@@H]1SC(C)C (stereo partly drawn) [Example 9, 3α,11α-dihydroxy-16β-isopropylthiofusida-13(17), 24-dien-21-oic acid sodium salt] | – | – | – | – | – | – | – | – | – | – | 5 | 16 | 2 | 5 | 1.6 | 5 | resistant to 3α,11α-dihydroxy-16β-isopropylthio-fusida-13(17),24-dien- 21-oic acid | 1.5 × 10^6 organisms per ml | Emergence of resistance against fusidic acid / change of sensitivity after pretreatment ([11]; 48 hours pretreatment with subinhibitory concentrations, sodium salt): Only a slight decrease of the sensitivity; also recorded: totally prohibited the emergence of resistance against fusidic acid
